Measured values reported in patent US6444670B2 (Wyeth, priority 1998, dated 2002).
pIC50: −log10 of the molar value.

How the values were obtained:
[1] = target: T1, Human recombinant PTP1B (hPTP1B) (Homo sapiens, UniProt P18031); assay type: biochemical
T1 construct: made in house
T1 sequence (P18031 1-435): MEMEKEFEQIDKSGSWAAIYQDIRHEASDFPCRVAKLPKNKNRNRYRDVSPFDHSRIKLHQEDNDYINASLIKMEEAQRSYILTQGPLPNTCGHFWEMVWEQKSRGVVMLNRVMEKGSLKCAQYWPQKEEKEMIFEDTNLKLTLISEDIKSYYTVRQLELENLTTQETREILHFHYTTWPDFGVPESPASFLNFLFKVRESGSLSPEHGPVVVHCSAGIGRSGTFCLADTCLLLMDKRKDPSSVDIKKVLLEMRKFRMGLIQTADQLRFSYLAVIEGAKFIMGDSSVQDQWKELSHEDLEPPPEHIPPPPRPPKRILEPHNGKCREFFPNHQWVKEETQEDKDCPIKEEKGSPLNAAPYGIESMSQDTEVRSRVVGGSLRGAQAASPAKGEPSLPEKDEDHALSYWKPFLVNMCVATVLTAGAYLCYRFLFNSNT

[2] = test system: rat hepatic microsomal PTPases; conditions: 50 μM compound

Molecule	pIC50 [1]	% Change from Control [2] [%]
CCN(CC)Cc1sc2c(Br)c3ccccc3c(-c3cc(Br)c(O[C@H](Cc4ccccc4)C(=O)O)c(Br)c3)c2c1C [Example 37, (R)-2-[2,6-Dibromo-4-(9-bromo-2-diethylaminomethyl-3-methyl-naphtho[2,3-b]thiophen-4-yl)-phenoxy]-3-phenyl-propionic acid]	6.45	−49.83
Cc1sc2c(Br)c3ccccc3c(-c3cc(N)c(O)c(Br)c3)c2c1C [Example 23, 2-Amino-6-bromo-4-(9-bromo-2,3-dimethyl-naphtho[2,3-b]thiophen-4-yl)-phenol]	6.13	−26.11
Cc1c(CN2CCOCC2)sc2c(Br)c3ccccc3c(-c3cc(Br)c(OC(C)C(=O)O)c(Br)c3)c12 (stereo not shown) [Example 36, 2-[2,6-Dibromo-4-(9-bromo-3-methyl-2-morpholin-4-ylmethyl-naphtho[2,3-b]thiophen-4-yl)-phenoxy]-propionic acid]	5.87	−67.00
Cc1sc2c(Br)c3ccccc3c(-c3cc(C(C)C)c(O[C@H](Cc4ccccc4)C(=O)O)c(C(C)C)c3)c2c1C [Example 55, (2R)-2-[4-(9-Bromo-2,3-dimethyl-naphtho[2.3-b]thiophen-4-yl)-2,6-diisopropyl-phenoxy]-3-phenyl-propionic acid]	7.23	
Cc1sc2c(Br)c3ccccc3c(-c3ccc(O[C@H](Cc4ccccc4)C(=O)O)c(F)c3)c2c1C [Example 52, (R)-2-[4-(9-Bromo-2,3-dimethyl-naphtho[2,3-b]thiophen-4-yl)-2-fluoro-phenoxy]-3-phenyl-propionic acid]	6.54	−87.66
[2-Bromo-4-(9-bromo-2,3-dimethyl-naphtho[2,3-b]thiophen-4-yl)-2-nitro-phenoxy]-acetic acid [Example 24]		−65.31
Cc1cc(-c2c3ccccc3cc3sc(C)c(C)c23)cc(C)c1O[C@H](Cc1ccccc1)C(=O)O [Example 46, (R)-2-[4-(2,3-Dimethyl-naphtho[2,3-b]thiophen-4-yl)-2,6-dimethyl-phenoxy]-3-phenyl-propionic acid]	5.92	−91.00
Cc1sc2cc3ccccc3c(-c3ccc(O[C@H](Cc4ccccc4)C(=O)O)c(F)c3)c2c1C [Example 51, (R)-2-[4-(2,3-Dimethyl-naphtho[2,3-b]thiophen-4-yl)-2-fluoro-phenoxy]-3-phenyl-propionic acid]	5.66	
Cc1sc2cc3ccccc3c(-c3ccc(O[C@H](Cc4ccccc4)C(=O)O)c(C(C)C)c3)c2c1C [Example 41, (R)-2-[4-(2,3-dimethyl-naphtho[2,3-b]thiophen-4-yl)-2-isopropyl-phenoxy]-3-phenyl-propionic acid]	6.14	−39.60
Cc1sc2cc3ccccc3c(-c3ccc(O[C@H](Cc4ccccc4)C(=O)O)c(C4CCCC4)c3)c2c1C [Example 45, (R)-2-[2-Cyclopentyl-4-(2,3-dimethyl-naphtho[2,3-b]thiophen-4-yl)-phenoxy]-3-phenyl-propionic acid]	6.69	−94.50
Cc1sc2cc3ccccc3c(-c3cc(C(C)C)c(O[C@H](Cc4ccccc4)C(=O)O)c(C(C)C)c3)c2c1C [Example 50, (R)-2-[4-(2,3-Dimethyl-naphtho[2,3-b]thiophen-4-yl)-2,6-diisopropyl-phenoxy]-3-phenyl-propionic acid]	6.34	−81.27
Cc1sc2c(Br)c3ccccc3c(-c3ccc(O[C@H](Cc4ccccc4)C(=O)O)c(C4CCCC4)c3)c2c1C [Example 47]	7.02	−68.48
Cc1oc2cc3ccccc3c(-c3cc(Br)c(O[C@H](Cc4ccccc4)C(=O)O)c(Br)c3)c2c1C [Example 54, (2R)-2-[2,6-Dibromo-4-(2,3-dimethyl-naphtho[2,3-b]furan-4-yl)-phenoxy]-3-phenyl-propionic acid]	6.01	
9-Bromo-4-(3-bromo-methoxy-5-nitro-phenyl)-2,3-dimethyl-naphtho[2,3-b]thiophene [Example 57]	5.72	
Cc1sc2c(Br)c3ccccc3c(-c3cc(Br)c(OC(Cc4ccccc4)C(=O)O)c([N+](=O)[O-])c3)c2c1C (stereo not shown) [Example 38, [2-Bromo-4-(9-bromo-2,3-dimethyl-naphtho[2,3-b]thiophen-4-yl)-2-nitro-phenoxy]-3-phenyl-propionic acid]	6.52	−57.74
Cc1sc2c(Sc3ccccc3)c3ccccc3c(-c3cc(Br)c(O[C@H](C)C(=O)O)c(Br)c3)c2c1C [Example 34, (R)-2-[2,6-Dibromo-4-(2,3-dimethyl-9-phenylsulfanyl-naphtho[2,3-b]thiophen-4-yl)-phenoxy]-propionic acid]	7.00	−63.01

Second part, the molecule after the results:

pIC50 [1]	% Change from Control [2] [%]	Molecule
6.86		CCc1cc(-c2c3ccccc3c(Br)c3sc(C)c(C)c23)cc(CC)c1O[C@H](Cc1ccccc1)C(=O)NCC(=O)O [Example 63, {(2R)-2-[4-(9-Bromo-2,3-dimethyl-naphtho[2,3-b]thiophen-4-yl)-2,6-diethyl-phenoxy]-3-phenyl-propionylamino}-acetic acid]
7.10		CCc1cc(-c2c3ccccc3cc3sc(C)c(C)c23)cc(CC)c1O[C@H](Cc1ccccc1)C(=O)NCC(=O)O [Example 68, {(2R)-2-[4-(2,3 -Dimethyl-naphtho[2,3-b]thiophen-4-yl)-2,6-diethyl-phenoxy]-3-phenyl-propionylamino}-acetic acid]
5.92		Cc1sc2cc3ccccc3c(-c3ccc(O[C@H](C)C(=O)O)c(C4CCCC4)c3)c2c1C [Example 71, (R)-2-[2-Cyclopentyl-4-(2-,3-dimethyl-naphtho[2,3-b]thiophen-4-yl)-phenoxy]-propionic acid]
6.49		CCN(CC)Cc1sc2c(Br)c3ccccc3c(-c3cc(C(C)C)c(O[C@H](Cc4ccccc4)C(=O)O)c(C(C)C)c3)c2c1C [Example 88, (2R)-2-[4-(9-Bromo-2-diethylaminomethyl-3-methyl-naphtho[2,3-b]thiophen-4-yl)-2,6-diisopropyl-phenoxy]-3-phenyl-propionic acid]
6.57		CCc1cc(-c2c3ccccc3cc3oc(C)c(C)c23)cc(Br)c1O [Example 78, 2-Bromo-4-(2-,3-dimethyl-naphtho[2,3-b]furan-4-yl)-6-ethyl-phenol]
6.48		CCc1cc(-c2c3ccccc3c(Br)c3oc(C)c(C)c23)cc(CC)c1O[C@H](Cc1ccccc1)C(=O)O [Example 70, (R)-2-[4-(9-Bromo-2-,3-dimethyl-naphtho[2,3-b]furan-4-yl)-2.6-diethyl-phenoxy]-3-phenyl-propionic acid]
6.32		Cc1sc2c(Br)c3ccccc3c(-c3ccc(O[C@H](C)C(=O)O)c(C4CCCC4)c3)c2c1C [Example 72, (R)-2-[4-(9-Bromo-2-,3-dimethyl-naphtho[2,3-b]thiophen-4-yl)-2-cyclopentyl-phenoxy]-propionic acid]
6.41		Cc1sc2c(Br)c3ccccc3c(-c3ccc(O[C@H](Cc4ccccc4)C(=O)O)cc3)c2c1C [Example 64, (2R)-2-[4-(9-Bromo-2,3-dimethyl-naphtho[2,3-b]thiophen-4-yl)-phenoxy]-3-phenyl-propionic acid]
6.11		CCc1cc(-c2c3ccccc3cc3oc(C)c(C)c23)cc(Br)c1O[C@H](Cc1ccccc1)C(=O)O [Example 79, (R)-2-[2-Bromo-4-(2-,3-dimethyl-naphtho[2,3-b]furan-4-yl)-6-ethyl-phenoxy]-3-phenyl-propionic acid]
6.89		CCCc1cc(-c2c3ccccc3c(Br)c3sc(C)c(C)c23)ccc1O[C@H](Cc1ccccc1)C(=O)O [Example 83, (R)-2-[4-(9-Bromo-2-,3-dimethyl-naphtho[2,3-b]thiophen-4-yl)-2-propyl-phenoxy]-3-phenyl-propionic acid]
6.35		CCc1cc(-c2c3ccccc3cc3sc(C)c(C)c23)ccc1O[C@H](Cc1ccccc1)C(=O)O [Example 76, (R)-2-[4-(2-,3-Dimethyl-naphtho[2,3-b]thiophen-4-yl)-2-ethyl-phenoxy]-3-phenyl-propionic acid]
7.55		Cc1cc(-c2c3ccccc3c(Br)c3sc(C)c(C)c23)cc(C)c1O[C@H](Cc1ccccc1)C(=O)NCC(=O)O [Example 62, {(2R)-2-[4-(9-Bromo-2,3-dimethyl-naphtho[2,3-b]thiophen-4-yl)-2,6-dimethyl-phenoxy]-3-phenyl-propionylamino}-acetic acid]
5.06		Ammonium molybdate tetrahydrate [reference compound]
